Reference: ChEMBL document CHEMBL4402511, “Development of covalent antagonists for β1- and β2-adrenergic receptors” (Bioorg Med Chem, 2019)

Experiments:
[1] = Selectivity index, ratio of Ki for displacement of [3H]CGP12177 from human beta2 adrenoceptor expressed in CHO cell membranes to Ki for displacement of [3H]CGP12177 from mouse beta1 adrenoceptor expressed in HEK293T cell membranes
Homo sapiens [2] = species on record: Homo sapiens; experiment: Covalent binding affinity to human beta2 adrenoceptor H2.64C mutant expressed in HEK293T cell membranes assessed as covalent blockage of binding site at 50 nM measured after 90 mins by [3H]CGP12177 binding based radioligand depletion assay relative to control
[3] = (§1) Displacement of [3H]CGP12177 from human beta2 adrenoceptor H2.64C mutant expressed in HEK293T cell membranes
[4] = biological target: Beta-2 adrenergic receptor (Homo sapiens, UniProt P07550); experiment: Displacement of [3H]CGP12177 from human beta2 adrenoceptor expressed in CHO cell membranes
Beta-2 adrenergic receptor, sequence (P07550 whole entry): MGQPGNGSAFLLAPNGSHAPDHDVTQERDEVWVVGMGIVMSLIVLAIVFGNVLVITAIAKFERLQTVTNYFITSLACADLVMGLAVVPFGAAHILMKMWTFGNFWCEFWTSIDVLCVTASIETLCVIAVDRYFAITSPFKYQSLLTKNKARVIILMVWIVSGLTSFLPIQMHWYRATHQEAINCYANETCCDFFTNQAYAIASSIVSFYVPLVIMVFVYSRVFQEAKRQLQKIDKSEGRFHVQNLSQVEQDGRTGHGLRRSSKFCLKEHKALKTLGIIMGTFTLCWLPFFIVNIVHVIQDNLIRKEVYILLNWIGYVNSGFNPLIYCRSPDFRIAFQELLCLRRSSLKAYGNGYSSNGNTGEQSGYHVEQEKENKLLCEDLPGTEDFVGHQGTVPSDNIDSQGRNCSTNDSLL

Homo sapiens [5] = species on record: Homo sapiens; experiment: Covalent binding affinity to human beta2 adrenoceptor H2.64C mutant expressed in HEK293T cell membranes assessed as covalent blockage of binding site at 50 nM measured after 15 mins by [3H]CGP12177 binding based radioligand depletion assay relative to control
[6] = (§2) Displacement of [3H]CGP12177 from mouse beta1 adrenoceptor I2.64C mutant expressed in HEK293T cell membranes
[7] = biological target: Beta-1 adrenergic receptor (Mus musculus, UniProt P34971); experiment: Displacement of [3H]CGP12177 from mouse beta1 adrenoceptor expressed in HEK293T cell membranes
Beta-1 adrenergic receptor, sequence (P34971 whole entry): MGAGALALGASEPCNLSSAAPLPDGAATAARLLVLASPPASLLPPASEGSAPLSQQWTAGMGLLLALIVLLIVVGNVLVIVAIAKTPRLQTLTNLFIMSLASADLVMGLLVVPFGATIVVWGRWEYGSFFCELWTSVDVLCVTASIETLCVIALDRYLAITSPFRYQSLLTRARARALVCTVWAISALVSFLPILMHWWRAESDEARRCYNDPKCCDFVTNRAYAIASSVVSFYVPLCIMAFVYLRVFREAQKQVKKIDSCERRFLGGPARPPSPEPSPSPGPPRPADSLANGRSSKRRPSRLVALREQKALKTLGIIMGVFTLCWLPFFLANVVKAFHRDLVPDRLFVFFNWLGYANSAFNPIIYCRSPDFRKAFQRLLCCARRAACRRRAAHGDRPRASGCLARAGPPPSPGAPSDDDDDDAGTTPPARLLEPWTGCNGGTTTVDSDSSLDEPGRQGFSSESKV

Mus musculus [8] = species on record: Mus musculus; experiment: Covalent binding affinity to mouse beta1 adrenoceptor I2.64C mutant expressed in HEK293T cell membranes assessed as covalent blockage of binding site at 50 nM measured after 120 mins by [3H]CGP12177 binding based radioligand depletion assay relative to control
Homo sapiens [9] = species on record: Homo sapiens; experiment: as §1
Mus musculus [10] = species on record: Mus musculus; experiment: Covalent binding affinity to mouse beta1 adrenoceptor I2.64C mutant expressed in HEK293T cell membranes assessed as covalent blockage of binding site at 1 uM measured after 120 mins by [3H]CGP12177 binding based radioligand depletion assay relative to control
Homo sapiens [11] = species on record: Homo sapiens; experiment: Covalent binding affinity to human beta2 adrenoceptor H2.64C mutant expressed in HEK293T cell membranes assessed as covalent blockage of binding site at 1 uM measured after 120 mins by [3H]CGP12177 binding based radioligand depletion assay relative to control
Mus musculus [12] = species on record: Mus musculus; experiment: as §2
Homo sapiens [13] = species on record: Homo sapiens; experiment: Covalent binding affinity to human beta2 adrenoceptor H2.64C mutant expressed in HEK293T cell membranes assessed as covalent blockage of binding site at 1 nM measured after 15 mins by [3H]CGP12177 binding based radioligand depletion assay relative to control
Homo sapiens [14] = species on record: Homo sapiens; experiment: Covalent binding affinity to human beta2 adrenoceptor H2.64C mutant expressed in HEK293T cell membranes assessed as covalent blockage of binding site at 1 nM measured after 90 mins by [3H]CGP12177 binding based radioligand depletion assay relative to control
Homo sapiens [15] = species on record: Homo sapiens; experiment: Covalent binding affinity to human beta2 adrenoceptor H2.64C mutant expressed in HEK293T cell membranes assessed as covalent blockage of binding site at 5 nM measured after 30 mins by [3H]CGP12177 binding based radioligand depletion assay relative to control
Homo sapiens [16] = species on record: Homo sapiens; experiment: Covalent binding affinity to human beta2 adrenoceptor H2.64C mutant expressed in HEK293T cell membranes assessed as covalent blockage of binding site at 5 nM measured within 15 mins by [3H]CGP12177 binding based radioligand depletion assay relative to control
Homo sapiens [17] = species on record: Homo sapiens; experiment: Covalent binding affinity to human beta2 adrenoceptor H2.64C mutant expressed in HEK293T cell membranes assessed as covalent blockage of binding site at 80 nM measured after 30 mins by [3H]CGP12177 binding based radioligand depletion assay relative to control
Homo sapiens [18] = species on record: Homo sapiens; experiment: Covalent binding affinity to human beta2 adrenoceptor H2.64C mutant expressed in HEK293T cell membranes assessed as covalent blockage of binding site at 50 nM measured after 30 mins by [3H]CGP12177 binding based radioligand depletion assay relative to control
Homo sapiens [19] = species on record: Homo sapiens; experiment: Covalent binding affinity to human beta2 adrenoceptor H2.64C mutant expressed in HEK293T cell membranes assessed as covalent blockage of binding site at 50 nM measured after 120 mins by [3H]CGP12177 binding based radioligand depletion assay relative to control
Homo sapiens [20] = species on record: Homo sapiens; experiment: Covalent binding affinity to human beta2 adrenoceptor H2.64C mutant expressed in HEK293T cell membranes assessed as covalent blockage of binding site measured after 15 mins by [3H]CGP12177 binding based radioligand depletion assay relative to control

SMILES	Ratio Ki [1]	Ki [3] [nM]	Ki [4] [nM]	Ki [7] [nM]	further results
COc1cc(CCNC[C@H](O)COc2ccc(COCCOC(C)C)cc2)ccc1OCCSSCCN	20	0.26	51	2.6	Activity (Homo sapiens [2]): < 100%; Activity (Homo sapiens [5]): 84 to 92%; Ki [6]: 2 nM; Activity (Mus musculus [8]): 64 to 76%
Cn1cc(C(F)(F)F)nc1-c1ccc(OC[C@@H](O)CNCCOc2ccc(OCCCSSCCN)c(C(N)=O)c2)cc1	20		1400	71	KiH (Homo sapiens [9]): 77 nM; KiL (Homo sapiens [9]): 3.6 µM; Activity (Mus musculus [10]): 53 to 67%; Activity (Homo sapiens [11]): 53 to 67%; KiH (Mus musculus [12]): 3.1 nM; KiL (Mus musculus [12]): 480 nM
COc1cc(CCNC[C@@H](O)COc2cccc3ccccc23)ccc1OCCSSCCN	0.12	0.75	3.4	29	
COc1cc(CCNC[C@H](O)COc2ccc(-c3nc(C(F)(F)F)cn3C)cc2)ccc1OCCSSCCN	15		2200	150	KiH (Homo sapiens [9]): 3.6 nM; KiL (Homo sapiens [9]): 2.5 µM; Activity (Homo sapiens [13]): 84 to 92%; Activity (Homo sapiens [14]): < 100%; KiH (Mus musculus [12]): 0.56 nM; KiL (Mus musculus [12]): 280 nM; Activity (Mus musculus [8]): 64 to 76%
COc1cc(CCNC[C@H](O)COc2cccc3ccccc23)ccc1OCCCSSCCN	0.066	0.18	0.073	1.1	Activity (Homo sapiens [15]): 100%; Activity (Homo sapiens [16]): 77 to 92%
COCCc1ccc(OC[C@H](O)CNCCc2ccc(OCCSSCCN)c(OC)c2)cc1	1.8	66	1300	740	
CC(C)NCC(O)COc1ccc(COCCOC(C)C)cc1 (racemic) [BISOPROLOL]				5.3	
COCCc1ccc(OC[C@@H](O)CNCCc2ccc(OCCSSCCN)c(OC)c2)cc1	2.1	3.8	57	27	Activity (Homo sapiens [17]): 100%
COc1cc(CCNC[C@H](O)COc2cccc3ccccc23)ccc1OCCSSCCN	0.33	0.083	0.16	0.49	Activity (Homo sapiens [15]): 100%; Activity (Homo sapiens [16]): 77 to 92%
COCCc1ccc(OC[C@@H](O)CNCCc2ccc(OCCCSSCCN)c(OC)c2)cc1	0.91	1.5	20	22	Activity (Homo sapiens [18]): 100%; Activity (Homo sapiens [19]): 100%
Cn1cc(C(F)(F)F)nc1-c1ccc(OCC(O)CNCCOc2ccc(O)c(C(N)=O)c2)cc1 (centres undefined) [CGP-20712A]				1.4	
Cn1cc(C(F)(F)F)nc1-c1ccc(OC[C@@H](O)CNCCOc2ccc(OCCSSCCN)c(C(N)=O)c2)cc1	41		2000	49	KiH (Homo sapiens [9]): 36 nM; KiL (Homo sapiens [9]): 8.4 µM; Activity (Mus musculus [10]): 74%; Activity (Homo sapiens [11]): 79%; KiH (Mus musculus [12]): 0.071 nM; KiL (Mus musculus [12]): 270 nM
COCCc1ccc(OCC(O)CNC(C)C)cc1 (racemic) [METOPROLOL]				49	
COc1cc(CCNC[C@@H](O)COc2cccc3ccccc23)ccc1OCCCSSCCN	0.033	1.2	1.1	33	
COc1cc(CCNC[C@H](O)c2ccc(O)c(O)c2)ccc1OCCSSCCN					Activity (Homo sapiens [20]): 71%
COCCc1ccc(OC[C@H](O)CNCCc2ccc(OCCCSSCCN)c(OC)c2)cc1	1.5	26	320	220	
